The source of these data is patent publication US11684610B2, “Pharmaceutical composition including 1,2-naphthoquinone derivative compound for prevention or treatment of solid cancers or blood cancers” (YUNGJIN PHARM. CO., LTD., priority 2018, dated 2023).

The structures appear in SMILES notation.

The test system of one test is K562 cells. Nature of the test: Cell viability in chronic leukemia K562 cells, WST assay. The format is cell-based, human. As to conditions: 0.1 to 5 μM. On the procedure: K562 cells obtained from a person with chronic myeloid leukemia were cultured in an incubator under conditions of 37° C. and 5% CO2 using RPMI medium containing 10% FBS (fetal bovine serum), and subcultured once every two days and used in the experiment.
The K562 cells cultured in Example 4-1 were inoculated into a 96-well plate at 1×10^5 cells/well, and then, for the stabilization of cells, the cells were cultured in an incubator at 37° C. and 5% CO2 for 16 hours or more. Subsequently, among the compounds synthesized in Example 1, the compounds 1, 10, and 72 and 192 were treated at a concentration of 0.1 to 5 μM and then cultured for 4 hours. At this time, DMSO was used as a control group. After 4 hours of incubation, 10 μl of WST solution was added to each cell and then reacted for 2 hours.

The test system of test [1] is A549, Hela, HepG2, MCF7 and Beas-2B cells. Briefly: Cell viability WST assay, all solid cancer and normal lung lines taken together. Conditions: 6 hours. The format is cell-based, human. An excerpt:
(§1) To confirm the possibility of use as a therapeutic agent for solid cancer, A549 cell line obtained from a […] with lung carcinoma, Hela cell line obtained from a person with cervix adenocarcinoma, HepG2 cell line obtained from a child with hepatocellular carcinoma, MCF7 cell line obtained from a person with breast adenocarcinoma, and Beas-2B cell line obtained from a normal lung for comparison with solid cancer cell line were used.
(§2) The A549 (lung carcinoma), Hela (cervix adenocarcinoma), HepG2 (hepatocellular carcinoma), MCF7 (breast carcinoma), and Beas-2B (normal lung) cell lines were used in DMEM medium containing 10% FBS, subcultured once every 2 days in an incubator under conditions of 37° C. and 5% CO2 and used in the experiment.
(§3) A549 (lung carcinoma), Hela (cervix adenocarcinoma), HepG2 (hepatocellular carcinoma), MCF7 (breast carcinoma), and Beas-2B (normal lung) cells cultured in Example 6-1 were inoculated into a 96-well plated at 1×10^4 cells/well, and then for the stabilization of cells, the cells were cultured in an incubator at 37° C. and 5% CO2 for 16 hours or more. Subsequently, among the compounds synthesized in Example 1, the compounds 1, 10 and 72 were treated at a concentration of 1 to 30 μM, and then cultured for 6 hours. At this time, DMSO and β-lapachone were used as the control group. After 4 hours of incubation, 10 μl of WST solution was added to each cell, the reaction was carried out for 2 hours, and the absorbance was measured at 450 nm with a multi-scan machine. The cell viabilities of A549 (lung carcinoma), Hela (cervix adenocarcinoma), HepG2 (hepatocellular carcinoma) and MCF7 (breast carcinoma) cells are shown in Table 4 and FIG. 6 below.

Test [2] concerns acute myelogenous leukemia mouse model in which FLT3-ITD was overexpressed. Briefly: Changes in monocyte cells in acute leukemia mouse model overexpressing FLT3-ITD. Conditions: 120 mg/kg in diet, 8 weeks, FACS, FIG. 4. The format is in vivo. On the procedure:
In order to confirm the change in the expression of the FLT3-ITD gene by Compound 1 of the present invention, peripheral blood and spleen were collected after 8 weeks from the animals of an experimental group in which Compound 1 of the present invention was mixed and administered in a diet at a concentration of 120 mg/kg using a mouse (jackson lab) that systemically overexpressed FLT3-ITD, and a control group to which only a solvent was administered (untreated group).
In the case of peripheral blood, cold 1×PBS was added to a small amount of blood, centrifuged, washed, to which RBC lysis buffer was added and reacted for 5 minutes at room temperature to remove red blood cells. […] The antibodies were reacted on ice at a ratio of 1:200 for 20 minutes, washed with 1×PBS, then resuspended with 1×PBS containing 1% FBS, and quantified by FACS, and shown in FIG. 4A.
In the case of the spleen, the cells were crushed on a mesh having a 40 μm hole, separated into single cells, and then washed with cold 1×PBS to which RBC lysis buffer was added and reacted at room temperature for 5 minutes to remove red blood cells. […] The antibodies were reacted on ice at a ratio of 1:200 for 20 minutes, washed with 1×PBS, resuspended in 1×PBS containing 1% FBS, and quantified by FACS, and shown in FIGS. 4B and 4C.

The test system of another test is BCR-ABL fusion gene. Nature of the test: Expression level of BCR-ABL fusion gene in K562 cells, western blot. The format is cell-based, human. Conditions: 0.5-2.5 μM, 6 hours, FIG. 5. On the procedure:
The BCR-ABL fusion gene, existing only in chronic myelogenous leukemia, generated and transmitted continuous cell growth signals to induce the growth of cancer cells. Thus, after chronic myeloid leukemia cells were treated with the compound of the present invention, western blot was used to confirm whether the expression level of the BCR-ABL fusion gene was reduced.
First, the K562 cells cultured in Example 4-1 were inoculated into a 60 mm plate at 5×10^6 cells/well, and then for the stabilization of cells, the cells were cultured in an incubator at 37° C. and 5% CO2 for 16 hours or more. The, the compound 1 was treated at concentrations of 0.5, 1, 1.5, 2 and 2.5 μM, respectively, and cultured for 6 hours, and then the cells were recovered. A protein extraction buffer (RIPA buffer) was added to the cells obtained in the above process, and reacted on ice for 30 minutes to break the cell membrane, which was centrifuged to remove a supernatant, and then the protein was extracted. The extracted protein was developed by electrophoresis using SDS-PAGE, and then transferred to the PVDF membrane. Then, the antibody related to the BCR-ABL fusion gene was reacted, and then the amount of the protein was confirmed using the ECL buffer, and Western blot results for the K562 cell line are shown in FIG. 5.
A general note: A western blot detects proteins with antibodies after separation by electrophoresis.

Test [3] concerns Hela (cervix adenocarcinoma). Briefly: Cell viability in solid cancer cells, WST assay, Hela. The format is cell-based, human. Conditions: Homo sapiens, 1 to 30 μM, 6 hours.
Source text: as §1, §2, §3

Broadly, the IC50 is the concentration at which inhibition is half-maximal. Low values mean inhibition by little substance, high ones a need for much substance. In turn, `CC(C)c1nc2c([nH]1)C(=O)C(=O)c1ccccc1-2` [compound 1] registered a half-maximal inhibitory concentration (IC50) in the test on K562 cells (4 hours) of 1600 nM. Besides, the IC50 with K562 cells (Homo sapiens, K562, 4 h) lay in the range of 1000 to 2000 nM. In addition, the “killing effect compared with β-lapachone” value in test [1] is “killing effect similar to β-lapachone”. Besides, the “suppression of proliferation of monocyte cells in peripheral blood and spleen” value in test [2] is “excellent effect of suppressing the proliferation of monocyte cells”. In the test with BCR-ABL fusion gene, the “expression level of the BCR-ABL fusion gene” value was “decreased in a concentration-dependent manner”, the expression of phospho-bcr-abl entry is reported as “also decreased” and the “expression of phospho-stat5” value is on record as “also decreased”. Also, the IC50 in test [3] is 4600 nM.
